Here are results for five compounds from PMC7400207, “It Takes Two: Dimerization Is Essential for the Broad-Spectrum Predatory and Defensive Activities of the Venom Peptide Mp1a from the Jack Jumper Ant Myrmecia pilosula” (Biomedicines, 2020).

Read-outs that look alike come from different tables or passages of the source. Marks after values point to notes of the source that are not given here.

The IC50 is the concentration that inhibits the measured activity by half. By EC50 is commonly meant the midpoint of the concentration-response curve.

In data set [1] the test system is Haemonchus contortus. Briefly: microbe, parasite or virus in culture. Format: cell-based. The conditions noted are these: for IC50: read-out: Anthelmintic Activity (IC50), inhibition of larval development. Here is the method:
Sheep were infected with H. contortus Kirby isolate (field isolate from the University of New England Kirby Research Farm in 1986; susceptible to all commercial anthelmintics) and housed at the Commonwealth Scientific and Industrial Research Organisation (CSIRO) FD McMaster Laboratory, Armidale, NSW. All animal procedures were approved by the FD McMaster Animal Ethics Committee, CSIRO (Approval Number AEC 17/12, approval date 15.6.2017). Eggs were prepared from overnight fecal collection as described. In brief, feces were filtered through mesh filters, settled, and supernatant removed by vacuum. Eggs were recovered by density centrifugation using 10 and 25% (w/v) sucrose solutions, centrifuged at 650× g for 7 min. Eggs were recovered from the interface of the two sucrose layers, rinsed with distilled water, sterilized with bleach, rinsed again, and diluted to 4500 eggs/mL. Tylosin tartrate (800 μg/mL) and amphotericin B (25.0 μg/mL) were added, and eggs were used immediately for larval development assays.
Assays were conducted using 96-well microtitre plates, with each well containing 50 μL of 2% agar, 20 μL of egg solution and 20 μL of peptide solution in water. The commercial anthelmintic levamisole (Sigma Aldrich) was used as a positive control (final 1% v/v). Negative controls contained equivalent volumes of water or DMSO (final 1% v/v). Plates were incubated at 26 °C for six days. After 24 h, each well was fed with 10 μL of a nutrient solution containing Escherichia coli XL1-Blue1 (grown overnight at 37 °C) and growth medium. The growth medium consisted of yeast extract (1% w/v), Earle’s salt solution (10% v/v), saline solution (0.9% NaCl, w/v), and sodium bicarbonate (1 mM) in Luria-Bertani medium (LB). Larvae were killed and stained with Lugol’s iodine solution after six days. Larvae that had developed to the infective L3 stage were counted, and the numbers in treated assay wells were expressed as a percentage of the number of infective L3 stage larvae in multiple control wells. Concentrations that caused 50% inhibition (IC50 values) were calculated from three experiments of duplicate assays.

In data set [2] the test system is Drosophila melanogaster. Description: Drosophila melanogaster microinjection assay. Format: in vivo. The conditions noted are these: intrathoracic injection, 50 nL, adult female flies, lethality at 24 h; three dose-response curves, ± SEM. The procedure:
The insecticidal activity of the chemically synthesized 1a and analogues thereof were determined by injection into adult female D. melanogaster aged 3–5 days (mass 0.7–0.9 mg) as described previously. Analogues were dissolved in water and intrathoracically injected using pulled glass capillaries at a volume of 50 nL per fruit fly, and the results were compared against an equivalent injection volume of water alone. All injections were performed in the morning or early afternoon. At 24 h post-injection flies were monitored for lethality. Dose–response curves were constructed using 7–10 doses per analogue (each dose tested in eight flies) and three separate dose–response curves were constructed for each analogue. The lethality in the groups receiving the analogues were adjusted using the respective control group lethality using the Henderson-Tilton formula [20]. The median lethal dose (LD50) of each analogue was calculated based on the three dose–response curves using GraphPad Prism 8.0 [21]. One-way ANOVA followed by Dunnett’s multiple comparison test were used to compare LD50 values.

For data set [3], the system named is F11 cells. Description: FLIPR calcium assay, activation of F11 cells. Format: cell-based. The conditions noted are these: for Neuronal Cell Activation (EC50) / Concentration at which cytolysis (rapid increase in fluorescence followed by decrease to or below baseline) was observed / EC50: F11 cells, FLIPR; for Neuronal Cell Activation (EC50) / EC50: Calcium 4 dye, max-min fluorescence in 300 s after peptide addition, PSS with 0.1% BSA, mean ± SEM, triplicate; for EC50: read-out: Neuronal Cell Activation (EC50). The procedure:
F11 cells were cultured as previously described. Cells were maintained on Ham’s F12 media supplemented with 10% fetal bovine serum (FBS), 100 µM hypoxanthine, 0.4 µM aminopterin, and 16 µM thymidine (Hybri-MaxTM, Sigma Aldrich, North Ryde, Australia). Then, 384-well imaging plates (Corning) were seeded 48 h prior to imaging resulting in 90–95% confluence at imaging. Cells were incubated for 30 min with the Calcium 4 assay component A according to the manufacturer’s instructions (Molecular Devices, Sunnyvale, CA, USA) in physiological salt solution (PSS; composition in mM: 140 NaCl, 11.5 D-glucose, 5.9 KCl, 1.4 MgCl2, 1.2 NaH2PO4, 5 NaHCO3, 1.8 CaCl2, 10 HEPES) at 37°C. Fluorescence was measured using a fluorescent imaging plate reader (FLIPR^TETRA) equipped with a CCD camera (Excitation: 470–490 nm, Emission: […]) (Molecular Devices, Sunnyvale, CA, USA). Signals were read every second for 10 s before, and 300 s after the addition of peptides in PSS supplemented with 0.1% bovine serum albumin. All data are the mean ± SEM of assays performed in triplicate. Maximum–minimum fluorescence in the 300 s period after peptide addition was recorded as the response. Concentration–response data were fitted with a four-parameter Hill equation (variable slope) using GraphPad Prism 8 to obtain effective concentration (EC50) values.

For data set [4], the system named is human red blood cells. The settings on record: cited from earlier work. Here is the method: Table 2 Summary of bioassay data for synthetic Mp1a and analogues, including effective concentration (EC50) for activation of F11 cells, concentrations that caused 50% inhibition (IC50) for inhibition of larval development of H. contortus; median lethal dose (LD50) for lethal insecticidal effects on D. melanogaster; concentrations required to induce 50% cell death (CC50) for effects on viability o | column: Hemolysis (HC50 µM) ^b

Data set [5] relates to HEK293 cells. The conditions noted are these: HEK293, 24 h, resazurin; cited from earlier work. Here is the method: Table 2 Summary of bioassay data for synthetic Mp1a and analogues, including effective concentration (EC50) for activation of F11 cells, concentrations that caused 50% inhibition (IC50) for inhibition of larval development of H. contortus; median lethal dose (LD50) for lethal insecticidal effects on D. melanogaster; concentrations required to induce 50% cell death (CC50) for effects on viability o | column: Cytotoxicity (CC50 µM) ^b
On the technique in general: The colour change of resazurin is a common sign of viable cells or microbes.

[6] abbreviates: H. contortus Kirby isolate, egg to infective L3, 6 days, 26 °C, three experiments of duplicate assays, ± SEM, for 1a the component at higher concentrations (about 90% of population).

As to `CC[C@H](C)[C@H](N)C(=O)N[C@@H](CC(=O)O)C(=O)N[C@@H](Cc1c[nH]c2ccccc12)C(=O)N[C@@H](CCCCN)C(=O)N[C@@H](CCCCN)C(=O)N[C@H](C(=O)N[C@@H](CC(=O)O)C(=O)N[C@@H](Cc1c[nH]c2ccccc12)C(=O)N[C@@H](CCCCN)C(=O)N[C@@H](CCCCN)C(=O)N[C@H](C(=O)N[C@@H](CO)C(=O)N[C@@H](CCCCN)C(=O)N[C@@H](CCCCN)C(=O)N[C@H](C(=O)N[C@H]1CSSC[C@@H](C(=O)N[C@@H](CCCCN)C(=O)N[C@@H](Cc2ccccc2)C(=O)N[C@@H](CC(C)C)C(N)=O)NC(=O)[C@H](C)NC(=O)[C@H](CCCCN)NC(=O)[C@H](CC(C)C)NC(=O)[C@H](CCSC)NC(=O)[C@H](C(C)C)NC(=O)[C@H](CCCCN)NC1=O)[C@@H](C)O)C(C)C)C(C)C` [Analogue 3a], in data set [1] (setting [6]), the 50% inhibitory concentration (IC50) is 46.8 ± 0.6 µM. The “Insecticidal Activity (LD50)” value in data set [2] is reported as above 600 pmol/g. Also, the “Neuronal Cell Activation (EC50)” value in data set [3] is “inactive”. In addition, the “Hemolysis (HC50)” value in data set [4] is reported as above 20 µM. Moreover, the “Cytotoxicity (CC50)” value in data set [5] is recorded as above 20 µM.
As for “H-LIGLVSKGTSVLVKTVSKKVLKQ-NH2 [Analogue 4b]”, the IC50 in data set [1] (setting [6]) amounted to 61.3 ± 4.4 µM. The “Insecticidal Activity (LD50)” value in data set [2] is on record as above 600 pmol/g. For the same compound, the “Neuronal Cell Activation (EC50)” value in data set [3] was “inactive”. Moreover, the “Hemolysis (HC50)” value in data set [4] is given as above 15 µM. In addition, the “Cytotoxicity (CC50)” value in data set [5] is recorded as above 15 µM.
With `CC[C@H](C)[C@H](N)C(=O)N[C@@H](CC(=O)O)C(=O)N[C@@H](Cc1c[nH]c2ccccc12)C(=O)N[C@@H](CCCCN)C(=O)N[C@@H](CCCCN)C(=O)N[C@H](C(=O)N[C@@H](CC(=O)O)C(=O)N[C@@H](Cc1c[nH]c2ccccc12)C(=O)N[C@@H](CCCCN)C(=O)N[C@@H](CCCCN)C(=O)N[C@H](C(=O)N[C@@H](CO)C(=O)N[C@@H](CCCCN)C(=O)N[C@@H](CCCCN)C(=O)N[C@H](C(=O)N[C@H]1CSSC[C@@H](C(=O)N[C@@H](CCCCN)C(=O)N[C@@H](CCCCN)C(=O)N[C@H](C(=O)N[C@@H](CC(C)C)C(=O)N[C@@H](CCCCN)C(=O)N[C@@H](CCC(N)=O)C(N)=O)C(C)C)NC(=O)[C@H](C(C)C)NC(=O)[C@H]([C@@H](C)O)NC(=O)[C@H](CCCCN)NC(=O)[C@H](C(C)C)NC(=O)[C@H](CC(C)C)NC(=O)[C@H](C(C)C)NC(=O)[C@@H](NC(=O)[C@@H](NC(=O)CNC(=O)[C@H](CCCCN)NC(=O)[C@H](CO)NC(=O)[C@@H](NC(=O)[C@H](CC(C)C)NC(=O)CNC(=O)[C@@H](NC(=O)[C@@H](N)CC(C)C)[C@@H](C)CC)C(C)C)[C@@H](C)O)CSSC[C@@H](C(=O)N[C@@H](CCCCN)C(=O)N[C@@H](Cc2ccccc2)C(=O)N[C@@H](CC(C)C)C(N)=O)NC(=O)[C@H](C)NC(=O)[C@H](CCCCN)NC(=O)[C@H](C)NC(=O)[C@H](CCSC)NC(=O)[C@H](C(C)C)NC(=O)[C@H](CCCCN)NC1=O)[C@@H](C)O)C(C)C)C(C)C` [Analogue 1d], the IC50 in data set [1] (setting [6]) came out at 9.5 ± 0.3 µM. Moreover, the “Fold less active than levamisole (IC50 higher)” value in data set [1] (larval development, drug-susceptible isolate) is given as “approximately 10 fold”. Also, the “Insecticidal Activity (LD50)” value in data set [2] is given as 578 ± 9.7 ^a pmol/g. Moreover, in data set [3], the “Concentration at which cytolysis (rapid increase in fluorescence followed by decrease to or below baseline) was observed” value was at least 1 µM and the concentration for a half-maximal effect (EC50) was 3.38 ± 2.8 µM. Moreover, the “Hemolysis (HC50)” value in data set [4] was above 12 µM. In data set [5], the “Cytotoxicity (CC50)” value is 0.7 µM.
In the case of `CC[C@H](C)[C@H](N)C(=O)N[C@@H](CC(=O)O)C(=O)N[C@@H](Cc1c[nH]c2ccccc12)C(=O)N[C@@H](CCCCN)C(=O)N[C@@H](CCCCN)C(=O)N[C@H](C(=O)N[C@@H](CC(=O)O)C(=O)N[C@@H](Cc1c[nH]c2ccccc12)C(=O)N[C@@H](CCCCN)C(=O)N[C@@H](CCCCN)C(=O)N[C@H](C(=O)N[C@@H](CO)C(=O)N[C@@H](CCCCN)C(=O)N[C@@H](CCCCN)C(=O)N[C@H](C(=O)N[C@H]1CSSC[C@H](NC(=O)[C@@H](NC(=O)CNC(=O)[C@H](CCCCN)NC(=O)[C@H](CO)NC(=O)[C@@H](NC(=O)[C@H](CC(C)C)NC(=O)CNC(=O)[C@@H](NC(=O)[C@@H](N)CC(C)C)[C@@H](C)CC)C(C)C)[C@@H](C)O)C(=O)N[C@@H](C(C)C)C(=O)N[C@@H](CC(C)C)C(=O)N[C@@H](C(C)C)C(=O)N[C@@H](CCCCN)C(=O)N[C@@H]([C@@H](C)O)C(=O)N[C@@H](C(C)C)C(=O)N[C@H](C(=O)N[C@@H](CCCCN)C(=O)N[C@@H](CCCCN)C(=O)N[C@H](C(=O)N[C@@H](CC(C)C)C(=O)N[C@@H](CCCCN)C(=O)N[C@@H](CCC(N)=O)C(N)=O)C(C)C)CSSC[C@@H](C(=O)N[C@@H](CCCCN)C(=O)N[C@@H](Cc2ccccc2)C(=O)N[C@@H](CC(C)C)C(N)=O)NC(=O)[C@H](C)NC(=O)[C@H](CCCCN)NC(=O)[C@H](CC(C)C)NC(=O)[C@H](CCSC)NC(=O)[C@H](C(C)C)NC(=O)[C@H](CCCCN)NC1=O)[C@@H](C)O)C(C)C)C(C)C` [Analogue 2a], the half-maximal inhibitory concentration (IC50) in data set [1] (setting [6]) was 35.8 ± 1.9 µM. Also, the “Insecticidal Activity (LD50)” value in data set [2] was above 600 pmol/g. Also, in data set [3], the “Concentration at which cytolysis (rapid increase in fluorescence followed by decrease to or below baseline) was observed” value is at least 1 µM and the half-maximal effective concentration (EC50) was 0.9 ± 0.08 µM. Moreover, the “Fold less active than native Mp1a (1a), F11 cell activation” value in data set [3] (ratio of EC50 values) is reported as “equipotent”. The “Hemolysis (HC50)” value in data set [4] is given as above 10 µM. Further, the “Cytotoxicity (CC50)” value in data set [5] was above 10 µM.
Turning to `c1ccc([C@H]2CN3CCSC3=N2)cc1` [levamisole, reference compound], the IC50 in data set [1] (Haemonchus contortus, 144 h) worked out at 0.68 µM.
